In patent US11484522B2, “Composite formulation and use thereof for preparing drugs for the treatment of tumours” (TIANJIN MEDICAL UNIVERSITY GENERAL HOSPITAL, priority 2018, dated 2022):

Experiments:
[1] = tested on: MDA-MB-231 breast cancer orthotopic model; assay: Breast cancer orthotopic model established with MDA-MB-231 cell line; format: in vivo, mouse; conditions: 50 mg/kg intraperitoneal
Text: To further verify the anti-tumor effect of 36806 in vivo, a breast cancer orthotopic model is established by using a MDA-MB-231 cell line. […] The tumor volume measured on the body surface was reduced, and the size and wet weight of the tumor after dissection were reduced as well (FIGS. 6C-6D). […] HE staining confirmed the orthotopic lung metastasis of breast cancer (FIG. 6F). […] The above is consistent with the results of in-vitro experiments, that is, 36806 can inhibit the proliferation and metastasis of breast cancer orthotopic model.
A breast cancer orthotopic model is established by using a MDA-MB-231 cell line. 0.2 mg/kg 36806 in combination with 0.2 mg/kg DZNEP served as a combination group (the molar ratio was about 1:1), 0.2 mg/kg 36806 and 1 mg/kg DZNEP served as single-drug groups, and DMSO served as a control group.

[2] = tested on: glioblastoma, breast cancer, melanoma and gastric cancer cell lines; assay: Transwell invasion assay; format: cell-based; conditions: low-dose 40 nM (FIG. 5H)
Text: (§1) Among the three predicted H3K27me3 binding sites in the promoter region of the target gene adenomatous polyposis coli 2 (APC2), sitel is a significant binding region of H3K27me3 (FIG. 5A). After the treatment with 36806, the binding of H3K27me3 in sitel region was weakened, and the binding of RNA polymerase II was strengthened (FIGS. 5B and 5C). […] APC2 is a tumor suppressor gene that can participate in the degradation of beta-catenin by ubiquitination and can inhibit the WNT signal path. The increased expression of APC2 can boost the degradation of beta-catenin. The nucleus-cytoplasm distribution of beta-catenin of cells in the treated group was decreased compared with that of the DMSO group (FIGS. 5D-5F). In this way, the downstream transcription of beta-catenin is inhibited, the expression of downstream EMT-related gene of multiple tumor cell lines is inhibited, and the protein expression is reduced (FIGS. 5G). Therefore, the invasion of tumor cells is weakened (FIG. 5H). Therefore, 36806 can inhibits the WNT signal path, reverses tumor EMT, and reduces tumor invasion and metastasis by increasing the expression level of target gene APC2.

[3] = tested on: HOTAIR target genes; assay: qPCR RNA level of HOTAIR target genes in tumor cell lines; format: cell-based
Description: FIG. 2B: The variations in RNA level of a target gene 48 h after treating with 40 nM of 36806 in multiple tumor cell lines.
FIG. 4A: RNA levels change of target genes in glioma and breast cancer cell lines after treating with 40 uM of 36806 for 48 hours.
FIG. 4C: RNA levels change of target genes after treating with low-dose 36806 concentration gradient for 48 hours.
(§2) Therefore, 36806 is capable of inhibiting the binding of HOTAIR to EZH2 at low concentrations and interfering with the recruitment of PRC2 to target genes, to relieve the target genes from silent suppression of histone methylation, thereby altering the function of epigenetic regulation.

[4] = tested on: binding of HOTAIR to the target genes; assay: CHIRP experiments, binding of HOTAIR to target genes; conditions: 40 nM
Text: (§3) Therefore, the inhibiting effect of 36806 on HOTAIR-EZH2 is specific.

[5] = tested on: H3K27me3 in the promoter region of the target genes; assay: CHIP experiments, H3K27me3 and RNA polymerase II in promoter region of target genes; format: cell-based
Text: FIG. 3F: Chromatin immunoprecipitation (CHIP) experiments verified that 36806 affected the recruitment of PRC2 by HOTAIR after hindering the binding of HOTAIR to EZH2, such that the level of H3K27me3 in the promoter region of the target genes was reduced and the target genes were transcriptionally activated.
FIG. 5A: The Site1 region before the transcription initiation of APC2 is a transcription promoter region of APC2 and a binding region of H3K27me3.
FIG. 5B: After the treatment with 36806, the binding of H3K27me3 in Site1 region was weakened, and the binding of RNA polymerase II was strengthened.
as §3, §1

[6] = tested on: multiple tumor cell lines; conditions: glioblastoma (U87-MG, LN229, primary N33), breast cancer (MDA-MB-231, MCF-7), HeLa, A375, SGC-7901, MGC-803, HepG2, PC9 cell lines
Description: Toxicity tests were then performed in multiple tumor cell lines.

[7] = tested on: HOTAIR target genes; assay: Western blot of protein level of HOTAIR target genes; format: cell-based
Description: as §2
The combination index (CI) of 36806 and DZNEP was measured by CalcuSyn software. […] After the transfection of EZH2 interfering RNA, combined with 36806 treatment, the transcription level of HOTAIR's target genes was higher (FIG. 7C). […] When used in combination with low-dose 36806, the dosage of DZNEP can be reduced by ⅘ (FIG. 7D).

[8] = tested on: beta-catenin; assay: Immunofluorescence and WB of beta-catenin and downstream EMT-related genes; format: cell-based
Text: as §1

[9] = 40 uM, 48 hours, glioma and breast cancer cell lines
[10] = low concentration gradient of 10 nM to 10 uM, 48 hours

## CC(C)NCC1Cc2cc(Cl)cc(Cl)c2O1 (stereo not drawn) [compound 36806, N-[(5,7-dichloro-2,3-dihydro-1-benzofuran-2-yl)methyl]propan-2-amine]
[1]
  expression of APC2 (immunofluorescence of tissue sections): increased
  expression of beta-catenin (immunofluorescence of tissue sections): decreased
  expression of target genes HOXD10 and PCDH10 (immunofluorescence of tissue sections): increased
[1]; 20 days and 40 days, vs DMSO group
  tumor size (bioluminescence imaging): significantly reduced
[1]; vs DMSO group
  size and wet weight of the tumor after dissection: reduced
  tumor volume measured on the body surface: reduced
[1]; organ imaging
  probability and scope of lung metastasis: smaller
[2]
  invasion of tumor cells: weakened
[3]; [9]
  mRNA level of HOTAIR's target genes HOXD10, PCDH10, PCDHB5, NLK, APC2: increase
[3]; RNA level, 40 nM, 48 h, multiple tumor cell lines
  expression level of HOTAIR target genes: up-regulate
[3]; [10]
  RNA level of the target genes: increased
[4]
  binding of HOTAIR to the target genes (CHIRP): without affecting
[5]
  level of H3K27me3 in the promoter region of the target genes (CHIP): reduced
[5]; after treatment with 36806
  binding of H3K27me3 in site1 region of APC2 promoter: weakened
  binding of RNA polymerase II in site1 region of APC2 promoter: strengthened
[6]
  IC50 of 36806: low
[7]; [9]
  protein level of HOTAIR's target genes HOXD10, PCDH10, PCDHB5, NLK, APC2: increase
[7]; 40 uM, time gradient
  protein level of the target genes, time gradient: changed
[7]; [10]
  protein level of the target genes: increased
[8]; compared with DMSO group
  nucleus-cytoplasm distribution of beta-catenin: decreased
[8]; multiple tumor cell lines
  protein expression of downstream EMT-related genes: reduced
